According to US20240190855A1 (Relay Therapeutics, Inc., priority 2021, published 2024):
pIC50: −log10 of the molar value.

Target: T1, CDK2/Cyclin E complex (Homo sapiens, UniProt P24941)
T1 construct: purchased Eurofins 14-475
Assay: CDK2/Cyclin E fluorescence-based microfluidic mobility shift assay (CDK2 Biochemical Caliper Assay)
Conditions: read-out: Biochemical CDK2/CyclinE Caliper IC50
Outline: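 Microfluidic mobility-shift readout after EDTA termination measured phosphorylation of fluorescent FL Peptide 18 (1.5 uM final) in a 20 hr room-temperature reaction. Compounds were tested at 11 concentrations (3-fold).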

Compound	pIC50
COCc1cc(C(=O)Nc2cc([C@@H]3C[C@H](Oc4nnccc4C(C)C)CO3)[nH]n2)n(C)n1 [Example 459]	≥ 7.00
COCc1cc(C(=O)Nc2cc([C@H]3CC[C@@](C)(CC(=O)NC(C)C)C3)[nH]n2)n(C)n1 (single isomer, unassigned) [Example 419]	4.00 to 6.00
Cc1cc(CC(=O)Nc2cc([C@@H]3C[C@@H]3COC(=O)NC(C)C)[nH]n2)on1 (single isomer, unassigned) [Example 136]	4.00 to 6.00
COCc1cc(C(=O)Nc2cc([C@H]3CC[C@@H](Oc4nnccc4C(F)(F)F)C3)[nH]n2)n(C)n1 (single isomer, unassigned) [Example 476]	≥ 7.00
CC(C)NC(=O)O[C@@H]1CC[C@H](c2cc(Nc3nc4cccnc4o3)n[nH]2)C1 (racemic) [Example 140]	≥ 7.00
CC(=O)Nc1cc([C@@H]2CC[C@H](Oc3nnccc3C(C)C)C2)[nH]n1 (single isomer, unassigned) [Example 428]	≥ 7.00
Cc1cc(CC(=O)Nc2cc([C@@H]3CC[C@H](n4cc(C(C)C)[nH]c4=O)C3)[nH]n2)on1 (single isomer, unassigned) [Example 378]	4.00 to 6.00
Cc1cc(CC(=O)Nc2cc(C34CCC(CC3)C4)[nH]n2)on1 [Example 244]	4.00 to 6.00
COCc1cc2c(Nc3cc([C@H]4C[C@@H](OC(=O)N5[C@@H](C)CC[C@@H]5C)CO4)[nH]n3)nccn2n1 (single isomer, unassigned) [Example 581]	≥ 7.00
CNS(=O)(=O)N[C@@H]1CC[C@H](c2cc(NC(=O)Cc3cc(C)no3)n[nH]2)C1 (single isomer, unassigned) [Example 145]	4.00 to 6.00
COCc1cc(C(=O)Nc2cc([C@@H]3CC[C@H](c4ccc(C)[nH]c4=O)C3)[nH]n2)n(C)n1 (single isomer, unassigned) [Example 543]	4.00 to 6.00
Cc1cc(CC(=O)Nc2cc([C@@H]3CC[C@H](N4CC5(CC5)NC4=O)C3)[nH]n2)on1 (single isomer, unassigned) [Example 338]	6.00 to 6.60
COCc1cc(C(=O)Nc2cc([C@H]3CC[C@@H](Oc4cncnc4C)C3)[nH]n2)n(C)n1 (single isomer, unassigned) [Example 490]	4.00 to 6.00
CC(C)c1ccnnc1O[C@H]1C[C@@H](c2cc(Nc3nccc4ncsc34)n[nH]2)C1 [Example 435]	≥ 7.00
Cc1cc(CC(=O)Nc2cc([C@@H]3CC[C@@H](CC(=O)O)C3)[nH]n2)on1 (single isomer, unassigned) [Example 344]	4.00 to 6.00
COCc1cc(C(=O)Nc2cc([C@@H]3CC[C@@H](c4ccc(C)nn4)C3)[nH]n2)n(C)n1 (single isomer, unassigned) [Example 574]	4.00 to 6.00
COCc1cc(C(=O)Nc2cc(-c3csc4cncnc34)[nH]n2)n(C)n1 [Example 242]	4.00 to 6.00

Compound	pIC50
Cc1cc(CC(=O)Nc2cc([C@@H]3CC[C@H](NC(=O)CC(C)C)C3)[nH]n2)on1 (single isomer, unassigned) [Example 130]	4.00 to 6.00
Cc1cc(CC(=O)Nc2cc(C3CC3)[nH]n2)on1 [Example 59]	4.00 to 6.00
COCc1nc2ccnc(Nc3cc([C@@H]4CC[C@H](OC(=O)NC(C)C)C4)[nH]n3)c2s1 (single isomer, unassigned) [Example 399]	≥ 7.00
COCc1cc(C(=O)Nc2cc([C@H]3CC[C@@H](Oc4ncccc4C(C)C)C3)[nH]n2)n(C)n1 (single isomer, unassigned) [Example 506]	≥ 7.00
COCc1cc(C(=O)Nc2cc([C@@H]3CC[C@@](C)(CC(=O)NC(C)C)C3)[nH]n2)n(C)n1 (single isomer, unassigned) [Example 447]	4.00 to 6.00
Cc1cc(CC(=O)Nc2cc([C@@H]3C[C@H](OC(=O)NC(C)C)CO3)[nH]n2)on1 (single isomer, unassigned) [Example 345]	6.60 to 7.00
COCc1cc(C(=O)Nc2cc([C@@H]3CC[C@@H](Cc4ncc(C)s4)C3)[nH]n2)n(C)n1 (single isomer, unassigned) [Example 556]	4.00 to 6.00
COCc1cc(C(=O)Nc2cc([C@@H]3CC[C@H](Oc4nncc5cnccc45)C3)[nH]n2)n(C)n1 (single isomer, unassigned) [Example 535]	6.00 to 6.60
Cc1cc(CC(=O)Nc2cc([C@H]3CC[C@@H](NC(=O)OC(C)C)C3)[nH]n2)on1 (single isomer, unassigned) [Example 143]	4.00 to 6.00
COCc1cc2c(Nc3cc([C@H]4C[C@H](COC(=O)NC(C)C)C4)[nH]n3)nccn2n1 [Example 560]	6.60 to 7.00
COCc1cc2c(Nc3cc([C@@H]4CC[C@H](Oc5cccnc5)C4)[nH]n3)nccn2n1 (single isomer, unassigned) [Example 526]	6.60 to 7.00
COCc1cc(C(=O)Nc2cc(-c3csc4cnc(NC(C)C)nc34)[nH]n2)n(C)n1 [Example 337]	4.00 to 6.00
Cc1cc(CC(=O)Nc2cc([C@H]3CC[C@@H](OC(=O)[C@H](N)C(C)C)C3)[nH]n2)on1 (single isomer, unassigned) [Example 450]	≥ 7.00
Cc1cc(CC(=O)Nc2cc([C@H]3C[C@@H](COc4nscc4C4CC4)C3)[nH]n2)on1 [Example 368]	≥ 7.00
Cc1cc(CC(=O)Nc2cc([C@@H]3C[C@H](Oc4nnccc4C(C)C)CO3)[nH]n2)on1 [Example 407]	≥ 7.00
c1cncc(O[C@@H]2CC[C@H](c3cc(Nc4ncnc5ncccc45)n[nH]3)C2)c1 (single isomer, unassigned) [Example 498]	4.00 to 6.00

The remaining lines, values ahead:

pIC50	Compound
≥ 7.00	COCc1cc2c(Nc3cc([C@H]4C[C@@H](OC(=O)NC(C)(C)C(F)(F)F)CO4)[nH]n3)nccn2n1 [Example 641]
≥ 7.00	Cc1cc(CC(=O)Nc2cc([C@H]3CC[C@@H](OC(=O)N4CC5C(C4)C5(C)C)C3)[nH]n2)on1 (stereo partly shown) [Example 661]
≥ 7.00	Cn1nc(OC(F)(F)F)cc1C(=O)Nc1cc([C@H]2C[C@@H](OC(=O)NC3(C)CC3)CO2)[nH]n1 [Example 787]
4.00 to 6.00	Cc1nc(Nc2cc(C3CCCC3)[nH]n2)c(C#N)c2c1CCC2 [Example 872]
4.00 to 6.00	CC(C)c1[nH]ncc1O[C@@H]1CO[C@H](c2cc(Nc3nccn4nccc34)n[nH]2)C1 (single isomer, unassigned) [Example 584]
≥ 7.00	COCc1cc2c(Nc3cc([C@H]4C[C@@H](OC(=O)NC56CC(C5)C6)CO4)[nH]n3)nccn2n1 [Example 651]
≥ 7.00	CC(C)NC(=O)O[C@H]1CO[C@@H](c2cc(Nc3nccn4nc(COC(C)C)cc34)n[nH]2)C1 [Example 658]
6.00 to 6.60	COCc1cc2c(Nc3cc([C@H]4C[C@@H](OC(=O)N[C@H](C)C5COC5)CO4)[nH]n3)nccn2n1 [Example 711]
≥ 7.00	Cn1nc(OCC(F)F)cc1C(=O)Nc1cc([C@@H]2C[C@H](OC(=O)NC34CC(C3)C4)CO2)[nH]n1 [Example 907]
≥ 7.00	COCc1cc2c(Nc3cc([C@H]4C[C@@H](OC(=O)NC5(C(F)F)CC5)CO4)[nH]n3)nccn2n1 [Example 644]
≥ 7.00	COCc1cc2c(Nc3cc([C@H]4C[C@@H](COc5cn[nH]c5C(C)C)C4)[nH]n3)nccn2n1 [Example 588]
4.00 to 6.00	O=c1ccc2nc(Nc3cc(C4CCCC4)[nH]n3)ccc2[nH]1 [Example 849]
≥ 7.00	COCc1cc2c(Nc3cc([C@@H]4C[C@H](OC(=O)NC56CC(C5)C6)CO4)[nH]n3)nccn2n1 [Example 767]
4.00 to 6.00	c1cc(Nc2cc(C3CCCC3)[nH]n2)n2ccnc2n1 [Example 837]
4.00 to 6.00	Clc1ccn2c(Nc3cc(C4CCCC4)[nH]n3)nnc2c1 [Example 850]
4.00 to 6.00	COc1cc(Nc2cc(C3CCCC3)[nH]n2)nc2sccc12 [Example 810]

pIC50	Compound
6.00 to 6.60	CC1(NC(=O)O[C@H]2CO[C@H](c3cc(Nc4nccc5nc(C(F)(F)F)cn45)n[nH]3)C2)CC1 [Example 898]
≥ 7.00	CCC1(NC(=O)O[C@H]2CO[C@@H](c3cc(Nc4nccn5nc(COC)cc45)n[nH]3)C2)CC1 [Example 705]
≥ 7.00	CC1(C)NC(=O)c2ccc(Nc3cc([C@H]4C[C@@H](OC(=O)NC56CC(C5)C6)CO4)[nH]n3)nc21 [Example 751]
≥ 7.00	COCc1nc2ccnc(Nc3cc([C@H]4C[C@@H](OC(=O)NC(C)(C)C)CO4)[nH]n3)c2s1 [Example 692]
4.00 to 6.00	COCc1cc(C(=O)Nc2cc([C@@H]3CC[C@H](c4cccc(C(C)C)n4)C3)[nH]n2)n(C)n1 (single isomer, unassigned) [Example 606]
≥ 7.00	COCc1cc(C(=O)Nc2ncc([C@H]3C[C@@H](OC(=O)NC4(C)CC4)CO3)s2)n(C)n1 (single isomer, unassigned) [Example 905]
≥ 7.00	COCc1cc2c(Nc3cc([C@H]4C[C@@H](COc5cn[nH]c5C(C)(C)C)C4)[nH]n3)nccn2n1 [Example 630]
4.00 to 6.00	COCc1cc(C(=O)Nc2cc([C@@H]3CC[C@@H](c4ccc(C)cn4)C3)[nH]n2)n(C)n1 (single isomer, unassigned) [Example 600]
4.00 to 6.00	c1c(Nc2ncc3c(n2)C2CCC3C2)n[nH]c1C1CCCC1 (stereo not shown) [Example 794]
4.00 to 6.00	COCc1cc(C(=O)Nc2cc([C@@H]3CC[C@H](c4ncc(C)cn4)C3)[nH]n2)n(C)n1 (single isomer, unassigned) [Example 594]
≥ 7.00	CC1(NC(=O)O[C@H]2CO[C@@H](c3cc(Nc4ccn5nccc5n4)n[nH]3)C2)CC1 [Example 727]
≥ 7.00	Cn1nc(COC(F)(F)F)cc1C(=O)Nc1cc([C@@H]2C[C@H](OC(=O)NC3(C)CC3)CO2)[nH]n1 [Example 773]
4.00 to 6.00	Cc1c(F)c(Nc2cc(C3CCCC3)[nH]n2)nc2ccccc12 [Example 863]
4.00 to 6.00	COCc1cc2c(Nc3cc([C@H]4C[C@@H](OC(=O)N[C@H](C)C5(C)COC5)CO4)[nH]n3)nccn2n1 [Example 685]
≥ 7.00	CC1(NC(=O)O[C@@H]2CO[C@H](c3cc(Nc4nccn5nc(COC(F)(F)F)cc45)n[nH]3)C2)CC1 [Example 922]
